Like-named read-outs stand apart in the source and are kept apart here.
How the values were obtained:
[1] = test system: cancer cell lines (SUP-T1, FEPD, H9, HH, SUP-M2, NKL, TL-1, FM3-29); assay: Cell viability assay, summary across all cancer cell lines tested; format: cell-based, human
Description: Cell Viability Assay. For cell viability, cell lines were plated at the appropriate cell densities (SUP-T1, HH, NKL and TL-1 at 100,000 cells/ml/well and H9, FEPD SUP-M2 and FM3-29 at 50,000 cells/ml/well) in a 48-well plate. […] Luminescence was normalized to untreated control, which was defined as 100% viability.

[2] = test system: PBMCs from healthy donors; assay: Cell viability of normal cells (CELL TITER GLO); format: cell-based, human; conditions: for IC50: Homo sapiens, PBMC
[3] = Pharmacokinetic study, romidepsin in plasma; conditions: mouse, in vivo, 2.5 mg/kg
Description: Each treatment cohort was further divided into two sub-cohorts depending upon the route of administration (IP or IV). […] Mice were sacrificed (n=3 per time point) at 1, 3, 6, 18, 24, 48, and 72 hours after the treatment. Blood (˜1 mL) was collected via terminal cardiac puncture under CO2 anesthesia and collected in EDTA-coated K3EDTA tubes followed by centrifugation (2000×g for 15 min) to isolate plasma. Plasma was placed in cryopreservation vials and preserved by snap freezing using liquid nitrogen. Blood from three untreated mice was collected at the beginning of the treatment (T=0) and used as a control.
For efficacy study: 5- to 7-week-old female NOD.Cg-Prkdcscid Il2rgtm1Wjl/SzJ mice (The Jackson Laboratory). were injected with 3 million a fluorescent protein, Chili (dTomato-absorption max and emission max at 554 nm and 581 nm respectively)—and a bioluminescence generating protein, firefly luciferase (Luc) expressing H9 cells subcutaneously in the flank. In vivo BLI analysis was conducted on a cryogenically cooled Lago X (Spectral Instruments Imaging system). Mice were imaged twice a week starting 4 days after inoculation of cells. […] Baseline imaging data were recorded for all mice on day 1 (start of drug administration) and on each day of drug administration before the treatment. The numbers of animals, study design, and treatment of animals were reviewed, and approved by the Institutional Animal Care and Use Committee (IACUC) of the University of Virginia, Charlottesville, Virginia, United States of America.

[4] = test system: BALB/c mice; assay: Repeated dose toxicity study; format: in vivo
Excerpt: FIGS. 14A and 14B. […] Depicted are the percentage of body weight changes as a percentage of starting weights with SEM (FIG. 14A; n=5 mice/group) and clinical score with SEM (FIG. 14B; n=5 mice/group).
In vivo studies. For single dose toxicity study, five to seven-week old female BALB/c mice were chosen for the MTD study. Animals were randomly assigned to dose groups based on body weight. […] Mice were divided into two cohorts for Nano-romidepsin (NanoRomi) and free romidepsin. Each cohort was divided into sub-cohorts. Each sub cohort (n=5) received a single treatment of following doses: 1, 2, 3, 5, and 8 mg/kg body weight by intreaperitoneal (IP) and intravenous (IV) route of administration. NanoRomi was diluted under sterile conditions in phosphate buffered saline (PBS). Romidepsin was prepared in DMSO and then diluted with PBS under sterile condition. […] The mice were monitored for 7 days after the last treatment. For single dose and repeated dose toxicity study, we used two endpoints: weight loss and clinical score. Clinical signs were scored by observing activity, appearance (hair coat and eyes/nose), posture, and body condition with a maximum of 3 points going to each (0, normal; 1 slight deviation from normal; 2, moderate deviation from normal, 3, severe deviation from normal). Euthanasia criteria included weight loss either >20% weight loss or reached a clinical score >6.

[5] = test system: acetylation of histone proteins H3 and H4 in HH cells; assay: Acetylation of histone H3 and H4 (flow cytometry, Western blot); format: cell-based, human; conditions: increasing doses, 30 hours
Description: Flow Cytometry. Cells were harvested after 30 hours of treatment, washed twice with PBS, fixed with 4% paraformaldehyde solution and permeabilized with 70% methanol before incubating with the relevant antibodies: HDAC1 Polyclonal Antibody (Proteintech), Rabbit anti-Acetyl Histone H3 K9/K14, and Rabbit Anti-Acetyl Histone H4 (Millipore). After 30 minutes incubation at room temperature cells are washed twice with PBS and FITC conjugated secondary Goat anti-rabbit antibodies (Thermofisher) were added. Cells were incubated on ice for 30 minutes and then washed in PBS. After the second wash, cells were resuspended in PBS with 4% FBS and ready for signal acquisition on a flow cytometer. Apoptosis in cell lines was assessed by the presence of cleaved Poly (ADP-ribose) polymerase-1 (PARP) using a flourochrome conjugated anti-cleaved PARP antibody (BD Biosciences). After staining the cells were acquired using an Attune Flow Cytometer and the data analyzed using FloJo analysis software. The Mean Fluorescence intensity (MFI) was indicative of the level of expression of each marker.
Western Blots. […] Antibodies were detected with the corresponding horseradish peroxidase-linked secondary antibodies. […] Signal detection and imaging was captured and analyzed using a CHEMIDOC™ System (Bio-Rad) with signal quantification. […]

C/C=C1\NC(=O)[C@H]2CSSCC/C=C/[C@H](CC(=O)N[C@H](C(C)C)C(=O)N2)OC(=O)[C@H](C(C)C)NC1=O [Romidepsin, (1S,4S,7Z,10S,16E,21R)-7-Ethylidene-4,21-diisopropyl-2-oxa-12,13-dithia-5,8,20,23-tetrazabicyclo[8.7.6]tricos-16-ene-3,6,9,19,22-pentone]
IC50 ([1]; Homo sapiens, 60 h, read-out: Avg. IC50 across the cancer cell lines, 60 hours, 8 cancer cell lines, b235 with +/- spread): 1.23 nM
IC50 ([1]; Homo sapiens, 60 h, read-out: IC50 range across the cancer cell lines, 60 hours, 8 cancer cell lines): 0.6 to 1.9 nM
IC50 ([1]; read-out: Avg. IC50 across the cancer cell lines, 60 hours, 8 cancer cell lines, b235 with +/- spread): 1.23 nM
times PBMCs from healthy donors more sensitive than the cancer cells ([2]; 72 hrs PBMCs vs cancer cells): 1.5 ×
IC50 ([2]; 24 h, read-out: IC50 in nM, PBMC Donor 1, 24 hrs): 0.02 nM
IC50 ([2]; 24 h, read-out: IC50 in nM, PBMC Donor 2, 24 hrs): > 50 nM
IC50 ([2]; 24 h, read-out: IC50 in nM, PBMC Donor 3, 24 hrs): > 50 nM
IC50 ([2]; 48 h, read-out: IC50 in nM, PBMC Donor 1, 48 hrs): 0.01 nM
IC50 ([2]; 48 h, read-out: IC50 in nM, PBMC Donor 2, 48 hrs): 0.01 nM
IC50 ([2]; 48 h, read-out: IC50 in nM, PBMC Donor 3, 48 hrs): > 50 nM
IC50 ([2]; 72 h, read-out: IC50 in nM, PBMC Donor 1, 72 hrs): 0.04 nM
IC50 ([2]; 72 h, read-out: IC50 in nM, PBMC Donor 2, 72 hrs): 0.07 nM
IC50 ([2]; 72 h, read-out: IC50 in nM, PBMC Donor 3, 72 hrs): 2.48 nM
IC50 ([2]; read-out: Avg. IC50 across the PBMCs from healthy donors, 3 donors, 72 hrs (sentence prints 'At 60 hrs' for NanoRomidepsin PDLLA)): 0.8 nM
IC50 ([2]; read-out: IC50 range across the PBMCs from healthy donors, 3 donors, 72 hrs (sentence prints 'At 60 hrs' for NanoRomidepsin PDLLA)): 0.04 to 2.5 nM
AUC(0-inf) ([3]; ip): 1930 ng·h/mL
AUC(0-t) ([3]; ip): 1920 ng·h/mL
Cmax ([3]; ip): 120 ng/mL
MRT inf ([3]; ip): 12.8 h
Tmax ([3]; ip): 6 h
Vd/F ([3]; ip): 20 L/kg
half-life ([3]; ip): 9.83 h
AUC(0-inf) ([3]; iv): 108 ng·h/mL
AUC(0-t) ([3]; iv): 99.3 ng·h/mL
Cmax ([3]; iv): 21.3 ng/mL
MRT inf ([3]; iv): 5.53 h
Tmax ([3]; iv): 1 h
half-life ([3]; iv): 5.22 h
body weight change ([4]; 3 mg/kg IP on days 1, 4, 8 and 11): severe body weight loss
deaths during the experimental period ([4]; 2 and 3 mg/kg IP on days 1, 4, 8 and 11): 1 mouse
acetylation of H3 and H4 (flow cytometry) [5]: concentration dependent increase in the acetylation of both H3 and H4
